Assays:
[1] = molecular target: T1, delF508-CFTR (Homo sapiens, UniProt P13569, DEL508-508); experiment: Measurement of delF508-CFTR-HRP surface expression in CFBE41o- cells; type: cell-based; conditions: for EC50: HRP-tagged delF508-CFTR in CFBE41o- cells, 24 h with compound, luminescence, 10-point curve, top 10 μM; for Emax: efficacy relative to reference compound 3-(6-(1-(2,2-difluorobenzo[d][1,3]dioxol-5-yl)cyclopropane-1-carboxamido)-3-methylpyridin-2-yl)benzoic acid, CFBE41o- cells, 24 h, read-out: DelF508-CFTR-HRP Amax %
T1 construct: expressed in transfected cells
How it was run: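 CFBE41o- cells stably expressing delF508-CFTR with HRP in the fourth extracellular loop, induced with 500 ng/mL doxycycline for 48 h, then treated with compound (top 10 μM, 10-point 3-fold) for 24 h at 37° C. Surface HRP detected by luminescence with cell-impermeant substrate; EC50 from logistic fit of triplicates, normalized to lowest concentration.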

[2] = molecular target: T1, delF508-CFTR; experiment: delF508-CFTR functional activity in primary human bronchial epithelial cells (HBECs), Multi-Transepithelial Clamp Circuit (MTECC-24) assay; type: cell-based
Text: Measurement of delF508-CFTR Functional Activity in Primary Human Bronchial Epithelial Cells (HBECs) Using Multi-Transepithelial Clamp Circuit (MTECC-24) Assay
This assay measures the functional activity of the CFTR channel (Chloride ion transport) in patient derived primary human bronchial epithelial cells with forskolin activation and in the presence of the CFTR corrector/potentiator combination.
Primary human delF508-CFTR bronchial epithelial cells were and cultured according to previously established methods (Neuberger, T. et, al., Methods in Molecular Biology, 2011, 741, pp 39-54). Briefly, before thawing the HBEC cells, T25 flasks were coated with 2 mL of 3T3 conditioned media (MTI-GlobalStem, Cat #GSM9100) for at least 12 hours in 37° C. CO2 incubator. 1.7×10^5 cells were seeded into one T25 flask with 5 mL of HBE growth media (BEBM with supplements (Lonza, Cat #CC-3170) with 10 nM of retinoic acid (Sigma, Cat #R-2625) and 1% of PSA (Hyclone, Cat #SV30079.01). Media was changed every day till the cells were 100% confluent. Cells were seeded into T75 flasks (pre-coated with 5 mL of 3T3 conditioned media for more than 12 hrs) at 4.95×10^5 cells/T75 flask in 15 mL of HBE growth media. Flasks were fed everyday with fresh HBE growth media until the cells were confluent. 24-well transwell plates (Corning, Cat #3378) were coated with 3T3 conditioned media (70 μL on top of the filter, 350 μL to the bottom of the well) overnight in the 37° C. CO2 incubator. Cells were seeded in the pre-coated 24-well transwell plates at 1.7×10^5 cell/well with 700 μL of growth media at the bottom of the well and 200 μL of growth media at the top of the filter. After 24 hrs, cells were switched into HBE differentiation media ((DMEM/F12 (Gibco, Cat #11330-032) supplement with 2% Ultroser G (Pall, Cat #15950-017), 2% of Fetal Clone II (Hyclone, Cat #SH30066.03), 0.25% Bovine Brain Extract (Lonza, Cat #CC-4098), 1% of PSA, 2.5 μg/mL of Insulin (Sigma, Cat #19278), 20 nM of Hydrocortisone (Sigma, Cat #H0888), 500 nM of Triiodothyronine (Sigma, Cat #T6397), 2.5 μg/mL of Transferrin (Sigma, Cat #T8158), 250 nM of Ethanolamine (Sigma, Cat #E0135), 1.5 μM of Epinephrine (Sigma, Cat #E4250), 250 nM of Phosphoethanolamine (Sigma, Cat #P0503), 10 nM of retinoic acid)) with 200 μL on top of the filter (apical side) and 700 μL at the bottom of the well (basolateral side). Cells were fed every other day with the differentiation media. After 4 days, cells were exposed to air/liquid interface. Then cells were fed every other day for 4 weeks before fully differentiated.
Cells were washed with 3 mM DTT in PBS at 70 ul/well for 30 min at 37° C. 6 days before the assay. 3 days before the assay, cells were washed again with PBS at 70 ul/well for 30 min at 37° C. Then cells were treated with compound for 24 hrs before the assay.
Following 24 hr treatment with compound, cells were transferred into plates containing 750 ul of assay media on basolateral side and 250 ul on apical side (Assay medium: F-12 Coon's modified, 20 mM HEPES pH7.4 with TRIS Base, No FCS or bicarbonate). The plates wee then transferred to the heated plate compartments (basolateral buffer temperature ˜36.5° C. on the heating block) of the TECC24 system for 45 mins prior to measurements.
Modulators were added sequentially as follows while the TECC24 instrument recorded the equivalent short circuit current (Ieq):
Prior to dilution into assay medium the stocks were as follows: • Benzamil stock: 10 mM in DMSO • Forskolin Stock: 50 mM in DMSO • N-(2,4-di-tert-butyl-5-hydroxyphenyl)-1,4-dihydro-4-oxoquinoline-3-carboxamide: 50 mM in DMSO • (S)-3-amino-6-methoxy-N-(3,3,3-trifluoro-2-hydroxy-2-methylpropyl)-5-(trifluoromethyl)picolinamide: 50 mM stock 100% DMSO • Bumetanide stock: 20 mM in EtOH
The data was normalized using the median signal from wells treated with 0.1% DMSO as a baseline. Curve fitting and EC50 calculations were performed using the following equation: […]

T1 sequence (P13569 with tags, fused parts or gaps DEL508-508): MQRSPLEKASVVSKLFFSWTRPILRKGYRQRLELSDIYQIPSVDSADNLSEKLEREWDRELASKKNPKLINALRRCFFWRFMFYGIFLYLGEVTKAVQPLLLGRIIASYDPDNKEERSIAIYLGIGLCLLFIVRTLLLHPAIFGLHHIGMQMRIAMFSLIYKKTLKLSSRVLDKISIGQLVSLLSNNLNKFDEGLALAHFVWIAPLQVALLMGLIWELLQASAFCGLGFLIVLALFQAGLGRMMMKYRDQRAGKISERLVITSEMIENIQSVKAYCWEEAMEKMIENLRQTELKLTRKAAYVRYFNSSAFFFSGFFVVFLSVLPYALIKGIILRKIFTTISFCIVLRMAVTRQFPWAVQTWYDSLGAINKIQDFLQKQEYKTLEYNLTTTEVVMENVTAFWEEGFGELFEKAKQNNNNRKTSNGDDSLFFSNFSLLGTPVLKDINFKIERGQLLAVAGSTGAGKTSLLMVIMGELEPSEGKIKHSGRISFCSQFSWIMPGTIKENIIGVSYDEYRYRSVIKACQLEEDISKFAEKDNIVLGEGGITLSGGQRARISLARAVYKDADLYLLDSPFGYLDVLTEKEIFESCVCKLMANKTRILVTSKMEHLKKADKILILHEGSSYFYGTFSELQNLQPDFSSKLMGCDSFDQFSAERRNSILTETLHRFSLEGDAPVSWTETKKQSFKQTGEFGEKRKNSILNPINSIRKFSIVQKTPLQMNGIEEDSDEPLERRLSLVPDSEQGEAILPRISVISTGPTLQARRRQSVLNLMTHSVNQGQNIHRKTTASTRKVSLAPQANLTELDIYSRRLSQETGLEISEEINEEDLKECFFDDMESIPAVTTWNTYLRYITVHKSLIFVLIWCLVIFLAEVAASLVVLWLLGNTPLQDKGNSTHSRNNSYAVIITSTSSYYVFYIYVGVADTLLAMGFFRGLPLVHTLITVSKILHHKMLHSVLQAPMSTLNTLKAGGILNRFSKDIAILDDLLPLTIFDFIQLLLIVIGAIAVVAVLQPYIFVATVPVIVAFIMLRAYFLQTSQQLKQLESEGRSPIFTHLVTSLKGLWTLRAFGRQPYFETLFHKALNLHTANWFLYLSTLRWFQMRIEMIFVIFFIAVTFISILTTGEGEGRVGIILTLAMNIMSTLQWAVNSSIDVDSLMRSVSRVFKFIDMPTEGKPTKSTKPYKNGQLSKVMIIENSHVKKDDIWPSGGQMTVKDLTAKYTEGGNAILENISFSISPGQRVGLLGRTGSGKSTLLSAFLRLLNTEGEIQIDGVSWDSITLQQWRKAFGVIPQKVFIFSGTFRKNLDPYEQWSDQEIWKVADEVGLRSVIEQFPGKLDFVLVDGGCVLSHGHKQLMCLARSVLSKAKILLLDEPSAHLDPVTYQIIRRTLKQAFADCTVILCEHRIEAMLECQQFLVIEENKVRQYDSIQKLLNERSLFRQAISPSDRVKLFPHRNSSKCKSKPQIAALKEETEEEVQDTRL

| Compound | EC50 [1] [nM] | EC50 ([2]; primary human delF508-CFTR bronchial epithelial cells, 24 h with compound, equivalent short circuit current (Ieq), forskolin plus potentiator, mean of at least two replicates, read-out: MTECC24-CFHBEC EC50) [nM] | MTECC24-CFHBEC Amax % ([2]; test compound added 24 h before assay, with potentiator (S)-3-amino-6-methoxy-N-(3,3,3-trifluoro-2-hydroxy-2-methylpropyl)-5-(trifluoromethyl)picolinamide, relative to 2 μM 3-(6-(1-(2,2-difluorobenzo[d][1,3]dioxol-5-yl)cyclopropane-1-carboxamido)-3-methylpyridin-2-yl)benzoic acid + 0.5 μM N-(2,4-di-tert-butyl-5-hydroxyphenyl)-4-oxo-1,4-dihydroquinoline-3-carboxamide) [%] | Emax [1] [%] |
| --- | --- | --- | --- | --- |
| CC(C)c1ccncc1-c1nc(NS(=O)(=O)c2cccc(N3CCCC(C)(C(=O)O)C3)n2)ccc1C(F)(F)F (centres unmarked) [Compound 30, 1-(6-(N-(4′-isopropyl-3-(trifluoromethyl)-[2,3′-bipyridin]-6-yl)sulfamoyl)pyridin-2-yl)-3-methylpiperidine-3-carboxylic Acid] | 2220 | – | – | 303 |
| O=C(O)CCCCNc1cccc(S(=O)(=O)Nc2ccc(C(F)(F)F)c(-c3ccccc3C3CC3)n2)n1 [Compound 42, 5-((6-(N-(6-(2-cyclopropylphenyl)-5-(trifluoromethyl)pyridin-2-yl)sulfamoyl)pyridin-2-yl)amino)pentanoic Acid] | 2670 | – | – | 507 |
| O=C(O)CC1CCN(c2cccc(S(=O)(=O)Nc3ccc(C(F)(F)F)c(-c4ccccc4C4CCC4)n3)n2)CC1 [Compound 17, 2-(1-(6-(N-(6-(2-cyclobutylphenyl)-5-(trifluoromethyl)pyridin-2-yl)sulfamoyl)pyridin-2-yl)piperidin-4-yl)acetic Acid] | 1460 | – | – | 369 |
| Cc1ccccc1-c1nc(NS(=O)(=O)c2cccc(N[C@@H]3CCC[C@H](C(=O)O)C3)n2)ccc1C(F)(F)F (racemic) [106a 106b (racemic mixture)] | 1950 | – | – | 392 |
| Cc1ccccc1-c1nc(NS(=O)(=O)c2cccc(N[C@H]3[C@@H](C(=O)O)[C@H]4C=C[C@@H]3C4)n2)ccc1C(F)(F)F (racemic) [107a 107b (racemic mixture)] | 2070 | – | – | 763 |
| Cc1cccc(C)c1-c1nc(NS(=O)(=O)c2ccnc(NCCC(=O)O)c2)ccc1Cl [Compound 2, 3-((4-(N-(5-chloro-6-(2,6-dimethylphenyl)pyridin-2-yl)sulfamoyl)pyridin-2-yl)amino)propanoic Acid] | 2720 | – | – | 124 |
| COc1ccc(Cl)c(-c2nc(NS(=O)(=O)c3cccc(N4CCN(c5ccc(C(=O)O)cc5)CC4)n3)ccc2C(F)(F)F)c1 [Compound 21, 4-(4-(6-(N-(6-(2-chloro-5-methoxyphenyl)-5-(trifluoromethyl)pyridin-2-yl)sulfamoyl)pyridin-2-yl)piperazin-1-yl)benzoic Acid] | 2930 | – | – | 361 |
| Cc1cccc(C)c1-c1nc(NS(=O)(=O)c2cccc(N3CCC(CC(=O)O)CC3)n2)ccc1Cl [Compound 5, 2-(1-(6-(N-(5-chloro-6-(2,6-dimethylphenyl)pyridin-2-yl)sulfamoyl)pyridin-2-yl)piperidin-4-yl)acetic Acid] | 2580 | – | – | 596 |
| CCc1ccccc1-c1nc(NS(=O)(=O)c2cccc(N3CCC(CC(=O)O)CC3)n2)ccc1C(F)(F)F [Compound 15, 2-(1-(6-(N-(6-(2-ethylphenyl)-5-(trifluoromethyl)pyridin-2-yl)sulfamoyl)pyridin-2-yl)piperidin-4-yl)acetic Acid] | 2140 | – | – | 397 |
| Cc1ccccc1-c1nc(NS(=O)(=O)c2cccc(N3CCC(O)(C(C)(C)C(=O)O)CC3)n2)ccc1C(F)(F)F [Compound 9, 2-(4-hydroxy-1-(6-(N-(6-(o-tolyl)-5-(trifluoromethyl)pyridin-2-yl)sulfamoyl)pyridin-2-yl)piperidin-4-yl)-2-methylpropanoic Acid] | 2020 | – | – | 102 |

Continued, values first:

| EC50 [1] [nM] | EC50 ([2]; primary human delF508-CFTR bronchial epithelial cells, 24 h with compound, equivalent short circuit current (Ieq), forskolin plus potentiator, mean of at least two replicates, read-out: MTECC24-CFHBEC EC50) [nM] | MTECC24-CFHBEC Amax % ([2]; test compound added 24 h before assay, with potentiator (S)-3-amino-6-methoxy-N-(3,3,3-trifluoro-2-hydroxy-2-methylpropyl)-5-(trifluoromethyl)picolinamide, relative to 2 μM 3-(6-(1-(2,2-difluorobenzo[d][1,3]dioxol-5-yl)cyclopropane-1-carboxamido)-3-methylpyridin-2-yl)benzoic acid + 0.5 μM N-(2,4-di-tert-butyl-5-hydroxyphenyl)-4-oxo-1,4-dihydroquinoline-3-carboxamide) [%] | Emax [1] [%] | Compound |
| --- | --- | --- | --- | --- |
| 1080 | 154 | 83 | – | Cc1ccccc1-c1nc(NS(=O)(=O)c2cccc(N(CCCC(=O)O)CC(C)C)n2)ccc1C(F)(F)F [Compound 129, 4-(isobutyl(6-(N-(6-(o-tolyl)-5-(trifluoromethyl)pyridin-2-yl)sulfamoyl)pyridin-2-yl)amino)butanoic Acid] |
| 2030 | – | – | 557 | Cc1c(F)cccc1-c1nc(NS(=O)(=O)c2cccc(N(C)CCC(=O)O)n2)ccc1C(F)(F)F [Compound 49, 3-((6-(N-(6-(3-fluoro-2-methylphenyl)-5-(trifluoromethyl)pyridin-2-yl)sulfamoyl)pyridin-2-yl)(methyl)amino)propanoic Acid] |
| 970 | – | – | – | CCN(CCCC(=O)O)c1cccc(S(=O)(=O)Nc2ccc(C(F)(F)F)c(-c3ccccc3C(C)C)n2)n1 [Compound 89, 4-(ethyl(6-(N-(6-(2-isopropylphenyl)-5-(trifluoromethyl)pyridin-2-yl)sulfamoyl)pyridin-2-yl)amino)butanoic Acid] |
| 1780 | – | – | 411 | Cc1ccccc1-c1nc(NS(=O)(=O)c2cccc(N3CCC(C)(CC(=O)O)C3)n2)ccc1C(F)(F)F (centres unmarked) [Compound 53, 2-(3-methyl-1-(6-(N-(6-(o-tolyl)-5-(trifluoromethyl)pyridin-2-yl)sulfamoyl)pyridin-2-yl)pyrrolidin-3-yl)acetic Acid] |
| 2000 | – | – | 369 | Cc1c(F)cccc1-c1nc(NS(=O)(=O)c2cccc(N3CCC(C)(CC(=O)O)C3)n2)ccc1C(F)(F)F (centres unmarked) [Compound 54, 2-(1-(6-(N-(6-(3-fluoro-2-methylphenyl)-5-(trifluoromethyl)pyridin-2-yl)sulfamoyl)pyridin-2-yl)-3-methylpyrrolidin-3-yl)acetic Acid] |
| 1680 | – | – | 457 | Cc1ccc(F)cc1-c1nc(NS(=O)(=O)c2cccc(N3CCC(C)(CC(=O)O)C3)n2)ccc1C(F)(F)F (centres unmarked) [Compound 55, 2-(1-(6-(N-(6-(5-fluoro-2-methylphenyl)-5-(trifluoromethyl)pyridin-2-yl)sulfamoyl)pyridin-2-yl)-3-methylpyrrolidin-3-yl)acetic Acid] |
| 4550 | – | – | 52 | CCN(CCC(=O)O)c1cc(S(=O)(=O)Nc2ccc(Cl)c(-c3cc(F)ccc3C)n2)ccn1 [Compound 144, 3-((4-(N-(5-chloro-6-(5-fluoro-2-methylphenyl)pyridin-2-yl)sulfamoyl)pyridin-2-yl)(ethyl)amino)propanoic Acid] |
| 2370 | – | – | – | C=Cc1ccccc1-c1nc(NS(=O)(=O)c2cccc(N3CCC[C@@H](CC(=O)O)C3)n2)ccc1C(F)(F)F [Compound 58, (S)-2-(1-(6-(N-(5-(trifluoromethyl)-6-(2-vinylphenyl)pyridin-2-yl)sulfamoyl)pyridin-2-yl)piperidin-3-yl)acetic Acid] |

Reference: patent US20220127247A1, “N-(PYRIDIN-2-YL)PYRIDINE-SULFONAMIDE DERIVATIVES AND THEIR USE IN THE TREATMENT OF DISEASE” (NOVARTIS AG, priority 2019, published 2022)
